Data reported in patent publication US20240050432A1 (Infinity Pharmaceuticals, Inc., priority 2020, published 2024).
Like-named read-outs stand apart in the source and are kept apart here.

What was measured:
Type in all cases: in vivo, human
[1] = Eganelisib exposures (Cmax, AUC0-24 hrs) with combination therapies, 3 clinical studies; details: for observed highest individual concentration value: PK cutoff June-July 2020; for Cmax / AUC(0-t): human, in vivo
[2] = Hepatic TEAEs by eganelisib dose in combination with nivolumab (phase 1 Part C, phase 2)
[3] = tested on: PD-L1; test: Paired tumor biopsies in TNBC phase II study: PD-L1 expression; details: 11 paired tumor biopsies; triplet regimen
[4] = 30 mg QD, C1D1, model-predicted
[5] = 30 mg QD, C2D1, model-predicted
[6] = 40 mg QD, C1D1, model-predicted
[7] = 40 mg QD, C2D1, model-predicted

For C[C@H](NC(=O)c1c(N)nn2cccnc12)c1cc2cccc(C#Cc3cnn(C)c3)c2c(=O)n1-c1ccccc1 [Compound 1, eganelisib], the “Cmax, Max” value [1, 4] was 1750 ng/mL, the “Cmax, Min” value [1, 4] was 637 ng/mL and the “Cmax, Max” value [1, 5] was 4070 ng/mL. The “Cmax, Min” value [1, 5] was 684 ng/mL, the “observed highest individual concentration value” ([1]; 30 mg QD, across all 3 studies) was 4.42 µg/mL and the “Cmax, Max” value [1, 6] was 3630 ng/mL. The “Cmax, Min” value [1, 6] was 346 ng/mL, the “Cmax, Max” value [1, 7] was 8830 ng/mL and the “Cmax, Min” value [1, 7] was 480 ng/mL. For the same compound, the “observed highest individual concentration value” ([1]; 40 mg QD, across all 3 studies) was 11.4 µg/mL, the “observed highest individual concentration lower for 30 mg QD versus 40 mg QD” value ([1]; across all 3 studies) was 61% and the Cmax ([1]; 30 mg QD, C1D1, model-predicted, read-out: Cmax, Mean) was 1020 ng/mL. For the same compound, the Cmax ([1]; 30 mg QD, C1D1, model-predicted, read-out: Cmax, Median) was 978 ng/mL, the AUC(0-t) ([1]; 30 mg QD, C2D1, model-predicted, read-out: AUC0-24 hrs, GeoMean) was 29200 ng·h/mL and the AUC(0-t) ([1]; 30 mg QD, C2D1, model-predicted, read-out: AUC0-24 hrs, Mean) was 33600 ng·h/mL. The AUC(0-t) ([1]; 30 mg QD, C2D1, model-predicted, read-out: AUC0-24 hrs, Median) was 25800 ng·h/mL, the Cmax ([1]; 30 mg QD, C2D1, model-predicted, read-out: Cmax, GeoMean) was 1680 ng/mL and the Cmax ([1]; 30 mg QD, C2D1, model-predicted, read-out: Cmax, Median) was 1530 ng/mL. The AUC(0-t) ([1]; 40 mg, 40 mg QD, C1D1, model-predicted, read-out: AUC0-24 hrs, GeoMean) was 26200 ng·h/mL, the AUC(0-t) ([1]; 40 mg, 40 mg QD, C1D1, model-predicted, read-out: AUC0-24 hrs, Mean) was 28400 ng·h/mL and the AUC(0-t) ([1]; 40 mg, 40 mg QD, C1D1, model-predicted, read-out: AUC0-24 hrs, Median) was 26000 ng·h/mL. The Cmax ([1]; 40 mg, 40 mg QD, C1D1, model-predicted, read-out: Cmax, GeoMean) was 1550 ng/mL, the Cmax ([1]; 40 mg, 40 mg QD, C1D1, model-predicted, read-out: Cmax, Mean) was 1650 ng/mL and the Cmax ([1]; 40 mg, 40 mg QD, C1D1, model-predicted, read-out: Cmax, Median) was 1560 ng/mL. For the same compound, the AUC(0-t) ([1]; 40 mg, 40 mg QD, C2D1, model-predicted, read-out: AUC0-24 hrs, GeoMean) was 42100 ng·h/mL, the AUC(0-t) ([1]; 40 mg, 40 mg QD, C2D1, model-predicted, read-out: AUC0-24 hrs, Mean) was 49600 ng·h/mL and the AUC(0-t) ([1]; 40 mg, 40 mg QD, C2D1, model-predicted, read-out: AUC0-24 hrs, Median) was 41400 ng·h/mL. It also gave a Cmax ([1]; 40 mg, 40 mg QD, C2D1, model-predicted, read-out: Cmax, GeoMean) of 2470 ng/mL, a Cmax ([1]; 40 mg, 40 mg QD, C2D1, model-predicted, read-out: Cmax, Mean) of 2770 ng/mL and a Cmax ([1]; 40 mg, 40 mg QD, C2D1, model-predicted, read-out: Cmax, Median) of 2420 ng/mL. It also gave an AUC(0-t) ([1]; oral, 30 mg QD, C1D1, model-predicted, read-out: AUC0-24 hrs, GeoMean) of 16100 ng·h/mL, an AUC(0-t) ([1]; oral, 30 mg QD, C1D1, model-predicted, read-out: AUC0-24 hrs, Mean) of 16700 ng·h/mL and an AUC(0-t) ([1]; oral, 30 mg QD, C1D1, model-predicted, read-out: AUC0-24 hrs, Median) of 15900 ng·h/mL. The Cmax ([1]; oral, 30 mg QD, C1D1, model-predicted, read-out: Cmax, GeoMean) was 993 ng/mL, the Cmax ([1]; oral, 30 mg QD, C2D1, model-predicted, read-out: Cmax, Mean) was 1860 ng/mL and the “subjects with Grade 3 hepatic TEAE” value ([2]; eganelisib 30 mg QD with nivolumab 480 mg Q4W) was less than 20%. For the same compound, the “subjects with Hepatic TEAEs” value ([2]; eganelisib 40 mg QD with nivolumab 480 mg Q4W) was greater than 20% and the “change of PD-L1 status/expression in paired tumor biopsies” value [3] was “on-mechanism conversion of patients from PD-L1(−) to PD-L1(+) and increase in PD-L1 expression in PD-L1(+) patients”.
